{"source": "patent US20040018533A1", "about": "“Diagnosing predisposition to fat deposition and therapeutic methods for reducing fat deposition and treatment of associated conditions” (priority 2002, published 2004)", "origin": "cited, not measured here", "molecular_target": "P2X4 (Homo sapiens, UniProt Q99571)", "sequence (Q99571 whole entry, species assumed)": "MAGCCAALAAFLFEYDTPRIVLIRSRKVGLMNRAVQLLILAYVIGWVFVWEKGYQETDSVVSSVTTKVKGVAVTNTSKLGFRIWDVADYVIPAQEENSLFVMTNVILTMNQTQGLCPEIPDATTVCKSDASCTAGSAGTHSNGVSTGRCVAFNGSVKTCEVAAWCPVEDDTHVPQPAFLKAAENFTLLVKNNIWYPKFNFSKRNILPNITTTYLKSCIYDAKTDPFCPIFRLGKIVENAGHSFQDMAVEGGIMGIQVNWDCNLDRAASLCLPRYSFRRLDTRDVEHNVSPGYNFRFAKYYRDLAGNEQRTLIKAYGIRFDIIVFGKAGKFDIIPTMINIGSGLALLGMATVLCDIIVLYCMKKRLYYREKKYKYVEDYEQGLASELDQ", "conditions": "Xenopus oocytes", "data": [{"smiles": "CCO", "note": "[ethanol]", "values": [{"measurement": "effect on P2X4 function", "result": "inhibits P2X4 function"}]}]}
